# Source: patent US10208033B2, “β-carboline, dihydro-β-carboline and tetrahydro-β-carboline alkaloid derivatives and preparation methods same and use in aspects of preventing and treating plant viruses, fungicides and insecticides” (NANKAI UNIVERSITY, priority 2013, dated 2019)
# Legend:
# [1] = test system: tobacco mosaic virus (TMV); assay: Anti-TMV in vitro effect (half-leaf soaking); format: cell-based, tobacco mosaic virus (host Nicotiana tabacum L.cv.Xanthi NN)
# [2] = test system: tobacco mosaic virus (TMV); assay: Anti-TMV in vivo inactivation; set-up: species or system tobacco mosaic virus (host Nicotiana tabacum L.cv.Xanthi NN)
# [3] = test system: tobacco mosaic virus (TMV); assay: Anti-TMV in vivo therapeutic effect; set-up: species or system tobacco mosaic virus (host Nicotiana tabacum L.cv.Xanthi NN)
# [4] = test system: tobacco mosaic virus (TMV); assay: Anti-TMV in vivo protective effect; set-up: species or system tobacco mosaic virus (host Nicotiana tabacum L.cv.Xanthi NN)
# [5] = test system: armyworms; format: in vivo; conditions: concentration 600 mg/kg
# [6] = test system: cotton bollworms; assay: whole plant or invertebrate; conditions: for Cotton bollworm Mortality (%): concentration 600 mg/kg
# Procedure: Experimental method of cotton bollworms: feed and drug mixing method: measure 3 mL of prepared solution and add it to about 27 g of newly prepared feed, thereby obtaining needed concentration through dilution by 10 times.
# [7] = test system: mosquito larvae; assay: whole plant or invertebrate; conditions: 24 h
# How it was run: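 Compound dissolved in acetone (or other solvent) to a 1000 ppm stock and diluted in water to 5 ppm. Ten Culex pipiens pallens larvae at the start of the fourth instar, laboratory-reared, added per beaker; solvent-only aqueous control.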
# [8] = test system: tobacco mosaic virus (TMV); assay: Anti-TMV activity, overall statements on Table 1; format: in vivo, tobacco mosaic virus (host Nicotiana tabacum L.cv.Xanthi NN); conditions: 100 μg/mL versus ningnanmycin at 100 μg/mL
# [9] = test system: corn borers; assay: whole plant or invertebrate; conditions: read-out: Corn borer Mortality (%)
# [10] = test system: cucumber fusarium wilt; assay: Fungicidal (bactericidal) activity in vitro, PDA colony diameter; format: cell-based; conditions: 50 mg/kg
# [11] = test system: Cercospora arachidicola; assay: as above; format: cell-based; conditions: 50 mg/kg
# [12] = test system: Macrophoma kawatsukai; assay: as above; format: cell-based; conditions: 50 mg/kg
# [13] = test system: Alternaria solani; assay: as above; format: cell-based; conditions: 50 mg/kg
# [14] = test system: Fusarium graminearumt; assay: microbe, parasite or virus in culture; format: cell-based; conditions: 50 mg/kg
# [15] = test system: potato late blight; assay: microbe, parasite or virus in culture; format: cell-based
# [16] = test system: Sclerotinia scleotiorum; assay: Fungicidal (bactericidal) activity in vitro, PDA colony diameter; format: cell-based; conditions: 50 mg/kg
# [17] = test system: Botrytis cinerea; assay: as above; format: cell-based; conditions: 50 mg/kg
# [18] = test system: Rhizoctonia solani; assay: as above; format: cell-based; conditions: 50 mg/kg
# [19] = test system: Phytophthora capsici; assay: as above; format: cell-based; conditions: 50 mg/kg
# [20] = test system: Fusarium fujikuroi; assay: as above; format: cell-based; conditions: 50 mg/kg
# [21] = test system: Rhizoctonia cereali; assay: as above; format: cell-based; conditions: 50 mg/kg
# [22] = test system: Bipolaria maydis; assay: organism not typed; format: cell-based; conditions: 50 mg/kg
# [23] = test system: Colletotrichum orbiculare; assay: Fungicidal (bactericidal) activity in vitro, PDA colony diameter; format: cell-based; conditions: 50 mg/kg
# [24] = test system: corn borers; conditions: concentration 600 mg/kg
Structure (SMILES),Armyworm Mortality (%) [5],anti-TMV activity compared with ningnanmycin [8],Relative inhibition rate (%) In vitro activity ([1]; treatment dose 100 μg/mL),Relative inhibition rate (%) In vitro activity ([1]; treatment dose 500 μg/mL),Relative inhibition rate (%) In vivo inactivation ([2]; treatment dose 100 μg/mL),Relative inhibition rate (%) In vivo inactivation ([2]; treatment dose 500 μg/mL),Relative inhibition rate (%) In vivo therapy ([3]; treatment dose 100 μg/mL),Relative inhibition rate (%) In vivo therapy ([3]; treatment dose 500 μg/mL),Relative inhibition rate (%) In vivo protection ([4]; treatment dose 100 μg/mL),Relative inhibition rate (%) In vivo protection ([4]; treatment dose 500 μg/mL),Bactericidal activity (%) Cucumber fusarium wilt [10],Bactericidal activity (%) Cercospora arachidicola [11],Bactericidal activity (%) Macrophoma kawatsukai [12],Bactericidal activity (%) Alternaria solani [13],Bactericidal activity (%) Fusarium graminearumt [14],Bactericidal activity (%) potato late blight [15],Bactericidal activity (%) Sclerotinia scleotiorum [16],Bactericidal activity (%) Botrytis cinerea [17],Bactericidal activity (%) Rhizoctonia solani [18],Bactericidal activity (%) Phytophthora capsici [19],other results
CC1NCCc2c1[nH]c1ccccc21 (centres unmarked) [Tetrahydroharmane],15%,equivalent to the activity of commercial variety ningnanmycin,,,,,,,,,,,,,,,,,,,"inhibition at 100 µg/mL ([1]; Tobacco mosaic virus, treatment dose 100 μg/mL, read-out: Relative inhibition rate (%) In vitro activity): 28.4%; inhibition at 500 µg/mL ([1]; Tobacco mosaic virus, treatment dose 500 μg/mL, read-out: Relative inhibition rate (%) In vitro activity): 63.7%; inhibition at 100 µg/mL ([2]; Tobacco mosaic virus, treatment dose 100 μg/mL, read-out: Relative inhibition rate (%) In vivo inactivation): 23.5%; inhibition at 500 µg/mL ([2]; Tobacco mosaic virus, treatment dose 500 μg/mL, read-out: Relative inhibition rate (%) In vivo inactivation): 64.2%; inhibition at 100 µg/mL ([3]; Tobacco mosaic virus, treatment dose 100 μg/mL, read-out: Relative inhibition rate (%) In vivo therapy): 20.4%; inhibition at 500 µg/mL ([3]; Tobacco mosaic virus, treatment dose 500 μg/mL, read-out: Relative inhibition rate (%) In vivo therapy): 57.2%; inhibition at 100 µg/mL ([4]; Tobacco mosaic virus, treatment dose 100 μg/mL, read-out: Relative inhibition rate (%) In vivo protection): 24.6%; inhibition at 500 µg/mL ([4]; Tobacco mosaic virus, treatment dose 500 μg/mL, read-out: Relative inhibition rate (%) In vivo protection): 59.5%; mortality at 600 mg/kg ([6]; Helicoverpa armigera, in Gossypium hirsutum, read-out: Cotton bollworm Mortality (%)): 15%; mortality at 10 mg/kg ([7]; Culex pipiens, read-out: Mosquito larvae Mortality (%)): 30%; mortality at 600 mg/kg [9]: 10%"
"C[C@@H]1N[C@H](C(=O)NN=Cc2cccs2)Cc2c1[nH]c1ccccc21 [Ic-20, (1S, 3S)—N′-(thiophene-2-methylene)-1-methyl-2,3,4,9-tetrahydropyridino [3,4-b] indol-3-formylhydrazine]",35%,equivalent to the activity of commercial variety ningnanmycin,23%,58.5%,29.6%,59.1%,25.1%,52.3%,31.8%,61.3%,26.9%,47.1%,55.6%,45.0%,62.1%,36.0%,88.2%,72.7%,46.1%,68.4%,Bactericidal activity (%) Fusarium fujikuroi [20]: 28.6%; Bactericidal activity (%) Rhizoctonia cereali [21]: 72.5%; Bactericidal activity (%) Bipolaria maydis [22]: 44.0%; Bactericidal activity (%) Colletotrichum orbiculare [23]: 44.4%; Cotton bollworm Mortality (%) [6]: 20%; Mosquito larvae Mortality (%) ([7]; concentration 10 mg/kg): 75%; Corn borer Mortality (%) [24]: 30%
C[C@@H]1N[C@H](C(=O)NN=Cc2ccc3c(c2)OCO3)Cc2c1[nH]c1ccccc21 [Ic-12],15%,equivalent to the activity of commercial variety ningnanmycin,29.1%,72.6%,33.6%,74.5%,30.2%,69%,35.8%,68.1%,31.8%,63.6%,63.6%,52.4%,53.8%,39.1%,44.2%,88.9%,50.0%,81.8%,Bactericidal activity (%) Fusarium fujikuroi [20]: 58.8%; Bactericidal activity (%) Rhizoctonia cereali [21]: 86.5%; Bactericidal activity (%) Bipolaria maydis [22]: 56.0%; Bactericidal activity (%) Colletotrichum orbiculare [23]: 48.0%; Cotton bollworm Mortality (%) [6]: 30%; Mosquito larvae Mortality (%) ([7]; concentration 10 mg/kg): 15%; Corn borer Mortality (%) [24]: 15%
"CC(=NNC(=O)[C@@H]1Cc2c([nH]c3ccccc23)[C@H](C)N1)C(C)(C)C [Ic-28, (1S, 3S)—N′-(3,3-dimethyl-2-butylidene)-1-methyl-2,3,4,9-tetrahydropyridino [3,4-b] indol-3-formylhydrazine]",45%,equivalent to the activity of commercial variety ningnanmycin,25.6%,58.1%,21.3%,59.7%,16.7%,55.4%,18.9%,56.8%,4.5%,36.4%,36.4%,14.3%,53.8%,30.4%,3.8%,41.7%,8.3%,18.2%,Bactericidal activity (%) Fusarium fujikuroi [20]: 23.5%; Bactericidal activity (%) Rhizoctonia cereali [21]: 48.6%; Bactericidal activity (%) Bipolaria maydis [22]: 28.0%; Bactericidal activity (%) Colletotrichum orbiculare [23]: 32.0%; Cotton bollworm Mortality (%) [6]: 45%; Mosquito larvae Mortality (%) ([7]; concentration 5 mg/kg): 20%; Mosquito larvae Mortality (%) ([7]; concentration 10 mg/kg): 100%; Corn borer Mortality (%) [24]: 40%
"C[C@@H]1N[C@H](C(=O)NNC(=O)C2CCCC2)Cc2c1[nH]c1ccccc21 [Id-7, (1S, 3S)—N′-(cyclopentyl formyl)-1-methyl-2,3,4,9-tetrahydropyridino [3,4-b] indol-3-formylhydrazine]",40%,equivalent to the activity of commercial variety ningnanmycin,22.2%,47.2%,20.3%,42.4%,18.6%,51.4%,26.6%,53.9%,9.1%,9.1%,33.3%,9.5%,15.4%,21.7%,7.7%,50.0%,1.4%,15.2%,Bactericidal activity (%) Fusarium fujikuroi [20]: 29.4%; Bactericidal activity (%) Rhizoctonia cereali [21]: 29.7%; Bactericidal activity (%) Bipolaria maydis [22]: 28.0%; Bactericidal activity (%) Colletotrichum orbiculare [23]: 16.0%; Cotton bollworm Mortality (%) [6]: 30%; Mosquito larvae Mortality (%) ([7]; concentration 10 mg/kg): 80%; Corn borer Mortality (%) [24]: 40%
